# Experimental data taken from patent US20240218022A1, “ANTI-VISTA MACROCYCLIC PEPTIDES AND COMPOSITIONS” (BRISTOL-MYERS SQUIBB COMPANY, priority 2022, published 2024).
# pIC50: −log10 of the molar value. Positions of bridges follow the written chain, without caps; N, C: chain ends. Non-standard residues stand in square brackets, D forms with d. Residues, ends and D or L forms follow the SMILES beside them. Ahp(2) = CCCCC[C@H](N)C(=O)O; NHexGly = CCCCCCNCC(=O)O; Nle = CCCC[C@H](N)C(=O)O; Orn = NCCC[C@H](N)C(=O)O; Dab = NCC[C@H](N)C(=O)O
# Molecular target: T1, mouse VISTA (mVISTA) (Mus musculus, UniProt Q9D659)
# T1 construct: expressed in transfected cells; host or cells: Human embryonic kidney 293T cells
# T1 sequence (Q9D659 33-308): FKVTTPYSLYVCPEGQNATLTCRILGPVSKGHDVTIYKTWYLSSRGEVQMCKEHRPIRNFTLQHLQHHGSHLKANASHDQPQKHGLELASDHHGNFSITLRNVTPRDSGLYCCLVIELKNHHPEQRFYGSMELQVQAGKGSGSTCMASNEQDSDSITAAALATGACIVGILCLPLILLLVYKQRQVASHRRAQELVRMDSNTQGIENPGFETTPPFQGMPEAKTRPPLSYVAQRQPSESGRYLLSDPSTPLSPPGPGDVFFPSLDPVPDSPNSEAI
# Assay: Cell-Based Binding High-Content Assay For mVISTA (HC CBA mVISTA)
# Conditions: 293T cells expressing mouse VISTA; competition with biotinylated peptide (2 nM); read-out: HC CBA mVISTA IC50
# Summary of the method: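 293T cells expressing mouse VISTA, with compounds added either after seeding ("no wash") or before seeding and then washed out after 1 h. Biotinylated peptide 2 nM for 30 min at room temperature, then detection with Alexa 647–streptavidin. After fixation with Hoechst stain, plates were high-content imaged; IC50 from four-parameter logistic fit.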
row,pIC50,SMILES
1,8.96,CCCCCCN1CC(=O)N[C@@H](Cc2ccc(O)cc2)C(=O)N[C@@H](CCCC)C(=O)N[C@@H](CC(=O)O)C(=O)N[C@@H](CCCNC(=N)N)C(=O)N[C@@H](CC(C)C)C(=O)N[C@@H](CCCCC)C(=O)N2CCC[C@H]2C(=O)N[C@@H](C(C)C)C(=O)N[C@@H](CC(N)=O)C(=O)N[C@H](C(=O)NCC(=O)O)CSCC(=O)N[C@@H](Cc2ccccc2)C(=O)N[C@@H](Cc2ccc(O)cc2)C(=O)N[C@@H](CC(=O)O)C1=O [Example 1029] ({CH2CO}-FYD[NHexGly]Y[Nle]DRL[Ahp(2)]PVNCG-OH; thioether N-14)
2,7.46,CCCCCCN1CC(=O)N[C@@H](Cc2ccc(O)cc2)C(=O)N[C@@H](CC(C)C)C(=O)N[C@@H](CC(N)=O)C(=O)N[C@@H](CCCNC(=N)N)C(=O)N[C@@H](CC(C)C)C(=O)N[C@@H](CCCCC)C(=O)N2CCC[C@H]2C(=O)N[C@@H](C(C)C)C(=O)N[C@@H](CCCNC(=N)N)C(=O)N[C@H](C(=O)NCC(=O)O)CSCC(=O)N[C@@H](Cc2ccccc2)C(=O)N[C@@H](Cc2ccc(O)cc2)C(=O)N[C@@H](CC(=O)O)C1=O [Example 1030] ({CH2CO}-FYD[NHexGly]YLNRL[Ahp(2)]PVRCG-OH; thioether N-14)
3,7.46,CCCCCCN1CC(=O)N[C@@H](Cc2ccc(O)cc2)C(=O)N[C@@H](CCCCC)C(=O)N[C@@H](CC(N)=O)C(=O)N[C@@H](CCCNC(=N)N)C(=O)N[C@@H](CC(C)C)C(=O)N[C@@H](CCCCC)C(=O)N2CCC[C@H]2C(=O)N[C@@H](C(C)C)C(=O)N[C@@H](CO)C(=O)N[C@H](C(=O)NCC(N)=O)CSCC(=O)N[C@@H](Cc2ccccc2)C(=O)N[C@@H](Cc2ccc(O)cc2)C(=O)N[C@@H](CC(=O)O)C1=O [Example 1031] ({CH2CO}-FYD[NHexGly]Y[Ahp(2)]NRL[Ahp(2)]PVSCG-NH2; thioether N-14)
4,7.95,CCCCCCN1CC(=O)N[C@@H](Cc2ccc(O)cc2)C(=O)N[C@@H](CCCCC)C(=O)N[C@@H](CC(N)=O)C(=O)N[C@@H](C)C(=O)N[C@@H](CC(C)C)C(=O)N[C@@H](CCCCC)C(=O)N2CCC[C@H]2C(=O)N[C@@H](C(C)C)C(=O)N[C@@H](CO)C(=O)N[C@H](C(=O)NCC(N)=O)CSCC(=O)N[C@@H](Cc2ccccc2)C(=O)N[C@@H](Cc2ccc(O)cc2)C(=O)N[C@@H](CC(=O)O)C1=O [Example 1032] ({CH2CO}-FYD[NHexGly]Y[Ahp(2)]NAL[Ahp(2)]PVSCG-NH2; thioether N-14)
5,7.78,CCCCCCN1CC(=O)N[C@@H](Cc2ccc(O)cc2)C(=O)N[C@@H](CCCC)C(=O)N[C@@H](CC(N)=O)C(=O)N[C@@H](CCCNC(=N)N)C(=O)N[C@@H](CC(C)C)C(=O)N[C@@H](CCCCC)C(=O)N2CCC[C@H]2C(=O)N[C@@H](C(C)C)C(=O)N[C@@H](CO)C(=O)N[C@H](C(=O)NCC(N)=O)CSCC(=O)N[C@@H](Cc2ccccc2)C(=O)N[C@@H](Cc2ccc(O)cc2)C(=O)N[C@@H](CC(=O)O)C1=O [Example 1033] ({CH2CO}-FYD[NHexGly]Y[Nle]NRL[Ahp(2)]PVSCG-NH2; thioether N-14)
6,8.43,CCCCCCN1CC(=O)N[C@@H](Cc2ccc(O)cc2)C(=O)N[C@@H](CCCCC)C(=O)N[C@@H](CC(N)=O)C(=O)N[C@@H](CCCNC(=N)N)C(=O)N[C@@H](CC(C)C)C(=O)N[C@@H](CCCCC)C(=O)N2CCC[C@H]2C(=O)N[C@@H](C(C)C)C(=O)N[C@@H](CO)C(=O)N[C@H](C(=O)NCC(=O)O)CSCC(=O)N[C@@H](Cc2ccccc2)C(=O)N[C@@H](Cc2ccc(O)cc2)C(=O)N[C@@H](CC(=O)O)C1=O [Example 1034] ({CH2CO}-FYD[NHexGly]Y[Ahp(2)]NRL[Ahp(2)]PVSCG-OH; thioether N-14)
7,7.52,CCCCCCN1CC(=O)N[C@@H](Cc2ccc(O)cc2)C(=O)N[C@@H](CCCCC)C(=O)N[C@@H](CC(N)=O)C(=O)N[C@@H](CCCCN)C(=O)N[C@@H](CC(C)C)C(=O)N[C@@H](CCCCC)C(=O)N2CCC[C@H]2C(=O)N[C@@H](C(C)C)C(=O)N[C@@H](CO)C(=O)N[C@H](C(=O)NCC(N)=O)CSCC(=O)N[C@@H](Cc2ccccc2)C(=O)N[C@@H](Cc2ccc(O)cc2)C(=O)N[C@@H](CC(=O)O)C1=O [Example 1035] ({CH2CO}-FYD[NHexGly]Y[Ahp(2)]NKL[Ahp(2)]PVSCG-NH2; thioether N-14)
8,7.70,CCCCCCN1CC(=O)N[C@@H](Cc2ccc(O)cc2)C(=O)N[C@@H](CCCCC)C(=O)N[C@@H](CC(N)=O)C(=O)N[C@@H](CCCN)C(=O)N[C@@H](CC(C)C)C(=O)N[C@@H](CCCCC)C(=O)N2CCC[C@H]2C(=O)N[C@@H](C(C)C)C(=O)N[C@@H](CO)C(=O)N[C@H](C(=O)NCC(N)=O)CSCC(=O)N[C@@H](Cc2ccccc2)C(=O)N[C@@H](Cc2ccc(O)cc2)C(=O)N[C@@H](CC(=O)O)C1=O [Example 1036] ({CH2CO}-FYD[NHexGly]Y[Ahp(2)]N[Orn]L[Ahp(2)]PVSCG-NH2; thioether N-14)
9,7.44,CCCCCCN1CC(=O)N[C@@H](Cc2ccc(O)cc2)C(=O)N[C@@H](CCCCC)C(=O)N[C@@H](CC(N)=O)C(=O)N[C@@H](CCN)C(=O)N[C@@H](CC(C)C)C(=O)N[C@@H](CCCCC)C(=O)N2CCC[C@H]2C(=O)N[C@@H](C(C)C)C(=O)N[C@@H](CO)C(=O)N[C@H](C(=O)NCC(N)=O)CSCC(=O)N[C@@H](Cc2ccccc2)C(=O)N[C@@H](Cc2ccc(O)cc2)C(=O)N[C@@H](CC(=O)O)C1=O [Example 1037] ({CH2CO}-FYD[NHexGly]Y[Ahp(2)]N[Dab]L[Ahp(2)]PVSCG-NH2; thioether N-14)
10,7.42,CCCCCCN1CC(=O)N[C@@H](Cc2ccc(O)cc2)C(=O)N[C@@H](CCCCC)C(=O)N[C@@H](CC(=O)O)C(=O)N[C@@H](CCCNC(=N)N)C(=O)N[C@@H](CC(C)C)C(=O)N[C@@H](CCCCC)C(=O)N2CCC[C@H]2C(=O)N[C@@H](C(C)C)C(=O)N[C@@H](CO)C(=O)N[C@H](C(=O)NCC(N)=O)CSCC(=O)N[C@@H](Cc2ccccc2)C(=O)N[C@@H](Cc2ccc(O)cc2)C(=O)N[C@@H](CC(=O)O)C1=O [Example 1038] ({CH2CO}-FYD[NHexGly]Y[Ahp(2)]DRL[Ahp(2)]PVSCG-NH2; thioether N-14)
11,8.66,CCCCCCN1CC(=O)N[C@@H](Cc2ccc(O)cc2)C(=O)N[C@@H](CCCCC)C(=O)NCC(=O)N[C@@H](CCCNC(=N)N)C(=O)N[C@@H](CC(C)C)C(=O)N[C@@H](CCCCC)C(=O)N2CCC[C@H]2C(=O)N[C@@H](C(C)C)C(=O)N[C@@H](CO)C(=O)N[C@H](C(=O)NCC(N)=O)CSCC(=O)N[C@@H](Cc2ccccc2)C(=O)N[C@@H](Cc2ccc(O)cc2)C(=O)N[C@@H](CC(=O)O)C1=O [Example 1039] ({CH2CO}-FYD[NHexGly]Y[Ahp(2)]GRL[Ahp(2)]PVSCG-NH2; thioether N-14)
12,8.27,CCCCCCN1CC(=O)N[C@@H](Cc2ccc(O)cc2)C(=O)N[C@@H](CC(C)C)C(=O)N[C@@H](CC(N)=O)C(=O)N[C@@H](CCCNC(=N)N)C(=O)N[C@@H](CC(C)C)C(=O)N[C@@H](CCCCC)C(=O)N2CCC[C@H]2C(=O)N[C@@H](C(C)C)C(=O)N[C@@H](CO)C(=O)N[C@H](C(=O)NCC(N)=O)CSCC(=O)N[C@@H](Cc2ccccc2)C(=O)N[C@@H](Cc2ccc(O)cc2)C(=O)N[C@@H](CC(=O)O)C1=O [Example 1040] ({CH2CO}-FYD[NHexGly]YLNRL[Ahp(2)]PVSCG-NH2; thioether N-14)
13,7.60,CCCCCCN1CC(=O)N[C@@H](Cc2ccc(O)cc2)C(=O)N[C@@H](CC(C)C)C(=O)N[C@@H](CC(=O)O)C(=O)N[C@@H](CCCNC(=N)N)C(=O)N[C@@H](CC(C)C)C(=O)N[C@@H](CCCCC)C(=O)N2CCC[C@H]2C(=O)N[C@@H](C(C)C)C(=O)N[C@@H](CO)C(=O)N[C@H](C(=O)NCC(N)=O)CSCC(=O)N[C@@H](Cc2ccccc2)C(=O)N[C@@H](Cc2ccc(O)cc2)C(=O)N[C@@H](CC(=O)O)C1=O [Example 1041] ({CH2CO}-FYD[NHexGly]YLDRL[Ahp(2)]PVSCG-NH2; thioether N-14)
14,7.44,CCCCCCN1CC(=O)N[C@@H](Cc2ccc(O)cc2)C(=O)N[C@@H](CCCCC)C(=O)N[C@@H](C)C(=O)N[C@@H](CCCNC(=N)N)C(=O)N[C@@H](CC(C)C)C(=O)N[C@@H](CCCCC)C(=O)N2CCC[C@H]2C(=O)N[C@@H](C(C)C)C(=O)N[C@@H](CO)C(=O)N[C@H](C(=O)NCC(=O)O)CSCC(=O)N[C@@H](Cc2ccccc2)C(=O)N[C@@H](Cc2ccc(O)cc2)C(=O)N[C@@H](CC(=O)O)C1=O [Example 1042] ({CH2CO}-FYD[NHexGly]Y[Ahp(2)]ARL[Ahp(2)]PVSCG-OH; thioether N-14)
15,7.75,CCCCCCN1CC(=O)N[C@@H](Cc2ccc(O)cc2)C(=O)N[C@@H](CC(C)C)C(=O)N[C@@H](CC(N)=O)C(=O)N[C@@H](CCCNC(=N)N)C(=O)N[C@@H](CC(C)C)C(=O)N[C@@H](CCCCC)C(=O)N2CCC[C@H]2C(=O)N[C@@H](C(C)C)C(=O)N[C@@H](CO)C(=O)N[C@H](C(=O)NCC(=O)O)CSCC(=O)N[C@@H](Cc2ccccc2)C(=O)N[C@@H](Cc2ccc(O)cc2)C(=O)N[C@@H](CC(=O)O)C1=O [Example 1043] ({CH2CO}-FYD[NHexGly]YLNRL[Ahp(2)]PVSCG-OH; thioether N-14)
16,7.67,CCCCCCN1CC(=O)N[C@@H](Cc2ccc(O)cc2)C(=O)N[C@@H](CCCCC)C(=O)NCC(=O)N[C@@H](CCCNC(=N)N)C(=O)N[C@@H](CC(C)C)C(=O)N[C@@H](CCCCC)C(=O)N2CCC[C@H]2C(=O)N[C@@H](C(C)C)C(=O)N[C@@H](CO)C(=O)N[C@H](C(=O)NCC(=O)O)CSCC(=O)N[C@@H](Cc2ccccc2)C(=O)N[C@@H](Cc2ccc(O)cc2)C(=O)N[C@@H](CC(=O)O)C1=O [Example 1044] ({CH2CO}-FYD[NHexGly]Y[Ahp(2)]GRL[Ahp(2)]PVSCG-OH; thioether N-14)
